Experiments:
TNFα = experiment: LPS-induced TNFα secretion in primary human monocyte-derived macrophages (ELISA); format: cell-based; design: TNFa Measurements Mean: unit not given here; details: for TNFa Measurements Mean: LPS 0.15 ng/mL; for TNFa Measurements Mean / Donor 2 TNFa Measurements Mean / Donor 3 TNFa Measurements Mean: baseline subtracted; for LPS-induced TNFα secretion: macrophages, 0.15 ng/mL LPS
Experimental: Unpurified buffy coats (Research Blood Components) were carefully poured into 50 mL centrifuge tubes and diluted with room temperature Dulbecco's Phosphate Buffered Saline (dPBS) with Calcium and Magnesium (Gibco). Diluted buffy coats were further divided into four total 50 mL centrifuge tubes at 20 mL per tube. Lymphocyte Separation Medium (Corning) was carefully pipetted to the bottom of each centrifuge tube. Mixtures were centrifuged at 850× g for 32 minutes at 20° C. with 0 deceleration and acceleration.
The PBMC layer was separated from other components after centrifugation and added to new 50 mL centrifuge tube containing 25 mL dPBS. Total volume was brought up to 50 mL with dPBS and centrifuged at 600×g for 10 minutes at 20° C. with acceleration of 9, deceleration of 5. Supernatant was carefully removed from cell pellets. The cell pellets were resuspended using 10 mL dPBS. Total volume was then brought up to 50 mL using dPBS and centrifuged at 450×g for 5 min at 20° C. with acceleration of 9, deceleration of 9. The supernatant removal and cell pellet resuspension was repeated again.
The supernatant was then carefully removed from cell pellets. Cell pellets were resuspended in 10 mL dPBS without calcium or magnesium and filtered through a 70 uM cell strainer. The total PBMC number was determined using a Cellometer K2 automated cell counter. A total of 5E6 cells were saved for flow cytometric analysis. Remaining cells were centrifuged at 490×g for 5 minutes at 20° C. with acceleration of 9, deceleration of 9.
CD14+ cells were selected using EasySep™ Human CD14 Positive Selection Kit II ([…] Technologies). Cells were resuspended in cold EasySep™ Buffer ([…] Technologies) at 1×10^8 cells/mL. A total of 100 uL/mL EasySep™ Human CD14 Positive Selection Cocktail II was added to the cell suspension, mixed, and incubated at room temperature for 10 minutes. A total of 100 uL/mL RapidSpheres were added to the mixture and incubated at room temperature for 3 minutes after mixing, then RoboSep buffer was added to bring up the total volume to 10 mL. The mixture in a 15 mL tube was placed in magnet and incubated at room temperature for 3 minutes. Supernatant was discarded and 10 mL fresh EasySep™ buffer was added to 15 mL tube. The addition of RoboSep buffer, mixing, and discarding of supernatant was repeated two more times.
Negative and positive fractions were centrifuged at 490×g for 5 minutes at 20° C. with acceleration of 9, deceleration of 9, and resuspended in DMEM (Gibco) and 10% Heat Inactivated Fetal Bovine Serum (Atlanta Bio) and Penicillin/Streptomycin. Cells were counted and centrifuged again at 490× g for 5 minutes at 20° C. with acceleration of 9, deceleration of 9. After centrifugation, cell were resuspended in DMEM (Gibco) and 10% Heat Inactivated Fetal Bovine Serum (Atlanta Bio) and Penicillin/Streptomycin containing 500 U/mL […] and plated at 1-2×10^6 cells/mL on 10 cm tissue culture plates. Cells were kept in 37° C., 5% CO2 in between feedings/harvest.
Cells were fed every 3-4 days by removing media and unattached cells, centrifuging at 490× g for 5 minutes at 20° C. with acceleration of 9, deceleration of 9, and resuspending in fresh DMEM (Gibco) and 10% Heat Inactivated Fetal Bovine Serum (Atlanta Bio) and Penicillin/Streptomycin containing GM-CSF. Resuspended cells were seeded back onto 10 cm tissue culture plates and incubated at 37° C., 5% CO2. Differentiated macrophages were used for subsequent experiments.
Primary human PMBC derived macrophages were seeded on day 0 at 3.0E4 cells per well in 96-well microplates (ThermoFisher) in Dulbecco's Modified Eagle Medium (DMEM) (Gibco) supplemented with penicillin-streptomycin (Hyclone) and 10% heat inactivated fetal bovine serum (HI-FBS) (Atlanta Bio) and incubated overnight at 37° C., 5% CO2. On day 1, cells were washed once with 150 uL per well DPBS (Gibco) and treated with 75 uL of: • a. […]

CCL18 = experiment: IL-4 induced CCL18 secretion in primary human monocyte-derived macrophages (ELISA); format: cell-based; details: for Donor 1 CCL18 Measurements Mean / Donor 2 CCL18 Measurements Mean: relative to vehicle control; for CCL18 Measurements: Mean (fold change relative to vehicle control): Donor 3, IL-4 induced; for IL-4 induced CCL18 secretion (fold change relative to vehicle control): macrophages
Experimental: Lymphocytes were purified from unpurified buffy coats (Research Blood Components) using Lymphocyte Separation Medium (Corning). After centrifugation, the PBMC layer was extracted and rinsed several times using Dulbecco's phosphate-buffered saline (DPBS; Gibco). After straining PBMCs through a 70 uM cell strainer, cells were resuspended and counted using a Cellometer K2 automated cell counter.
CD14+ cells were selected using EasySep™ Human CD14 Positive Selection Kit II ([…] Technologies) according to manufacturer-supplied protocols. Following isolation CD14+ cells were seeded into 10 cm tissue culture plates and differentiated into macrophages using M-CSF (Peprotech).
On day 0, primary human PBMC derived macrophages were seeded in Dulbecco's Modified Eagle Medium (DMEM) (Gibco) supplemented with penicillin-streptomycin (Hyclone) and 10% heat inactivated fetal bovine serum (HI-FBS) (Atlanta Bio) into 96-well microplates (ThermoFisher) and incubated overnight at 37° C., 5% CO2. On day 1, cells were washed once with DPBS and then treated with: • a. Amino acid free DMEM (US Biologicals) containing a defined custom amino acid concentration based on the mean physiological concentrations in blood based on values published in the Human Metabolome Database (HMDB), with 6 mM glucose, 1 mM sodium pyruvate, 10 mM HEPES, penicillin-streptomycin; or • b. The same medium described above with one amino acid or amino acid combination at various concentrations
On day 2, cells were treated with the same mediums described above supplemented with recombinant human interleukin-4 (IL-4; Peprotech). Control wells were treated with tofacitinib (Tocris) and IL-4, PBS with IL-4, or phosphate buffered saline (PBS) alone.
On day 3, the supernatant was collected and immediately frozen in −80° C. freezer. Cells were washed once with DPBS and viability was assessed using the WST-8 Cell Proliferation Cytotoxicity Assay (Dojindo) according to manufacturer-supplied protocol. Following the assay, cells were washed twice with PBS and fixed with 4% paraformaldehyde. Protein levels in supernatant samples were analyzed by ELISA for CCL18 using commercially available kits (R&D Systems) according to manufacturer-supplied protocols.

CC(=O)N[C@@H](CS)C(=O)O [NAC, N-acetylcysteine]
TNFa Measurements Mean (TNFα; Donor 1, Conc. 0 X (baseline)): 0
TNFa Measurements Mean (TNFα; Donor 1, Conc. 5 X): −326.24
TNFa Measurements Mean (TNFα; Donor 1, Conc. 10 X): −446.88
TNFa Measurements Mean (TNFα; Donor 1, Conc. 20 X): −561.33
TNFa Measurements Mean (TNFα; Donor 1, Conc. 40 X): −644.49
Donor 2 TNFa Measurements Mean (TNFα; Donor 2, Conc. 0 X (baseline)): 9.47E−15
Donor 2 TNFa Measurements Mean (TNFα; Donor 2, Conc. 5 X): −54.1596
Donor 2 TNFa Measurements Mean (TNFα; Donor 2, Conc. 10 X): −70.8382
Donor 2 TNFa Measurements Mean (TNFα; Donor 2, Conc. 20 X): −88.6528
Donor 2 TNFa Measurements Mean (TNFα; Donor 2, Conc. 40 X): −103.984
Donor 3 TNFa Measurements Mean (TNFα; Donor 3, Conc. 0 X (baseline)): 4.74E−15
Donor 3 TNFa Measurements Mean (TNFα; Donor 3, Conc. 5 X): −33.6246
Donor 3 TNFa Measurements Mean (TNFα; Donor 3, Conc. 10 X): −41.7266
Donor 3 TNFa Measurements Mean (TNFα; Donor 3, Conc. 20 X): −48.4373
Donor 3 TNFa Measurements Mean (TNFα; Donor 3, Conc. 40 X): −55.3093
LPS-induced TNFα secretion (TNFα; Donor 1): significantly reduced
LPS-induced TNFα secretion (TNFα; Donor 2): significantly reduced
LPS-induced TNFα secretion (TNFα; Donor 3): significantly reduced
Donor 1 CCL18 Measurements Mean (CCL18; Donor 1, Conc. 4 X): 1.831 fold change
Donor 1 CCL18 Measurements Mean (CCL18; Donor 1, Conc. 10 X): 1.979 fold change
Donor 1 CCL18 Measurements Mean (CCL18; Donor 1, Conc. 20 X): 2.206 fold change
Donor 1 CCL18 Measurements Mean (CCL18; Donor 1, Conc. 40 X): 2.464 fold change
Donor 2 CCL18 Measurements Mean (CCL18; Donor 2, Conc. 5 X): 1.326 fold change
Donor 2 CCL18 Measurements Mean (CCL18; Donor 2, Conc. 10 X): 1.293 fold change
Donor 2 CCL18 Measurements Mean (CCL18; Donor 2, Conc. 20 X): 1.169 fold change
Donor 2 CCL18 Measurements Mean (CCL18; Donor 2, Conc. 40 X): 1.517 fold change
CCL18 Measurements: Mean (fold change relative to vehicle control) (CCL18; Conc. 5 X): 1.324 fold change
CCL18 Measurements: Mean (fold change relative to vehicle control) (CCL18; Conc. 10 X): 1.67 fold change
CCL18 Measurements: Mean (fold change relative to vehicle control) (CCL18; Conc. 20 X): 1.812 fold change
CCL18 Measurements: Mean (fold change relative to vehicle control) (CCL18; Conc. 40 X): 1.887 fold change
IL-4 induced CCL18 secretion (fold change relative to vehicle control) (CCL18; Donor 1): significantly increased
IL-4 induced CCL18 secretion (fold change relative to vehicle control) (CCL18; Donor 2): significantly increased

CC(C)[C@H](N)C(=O)O [Valine, L-Valine]
TNFa Measurements Mean (TNFα; Donor 1, Conc. 234 μM (baseline)): 0
TNFa Measurements Mean (TNFα; Donor 1, Conc. 4684 μM): −40.37
TNFa Measurements Mean (TNFα; Donor 1, Conc. 11710 μM): −41.77
TNFa Measurements Mean (TNFα; Donor 1, Conc. 23420 μM): −14.98
Donor 2 TNFa Measurements Mean (TNFα; Donor 2, Conc. 234 μM (baseline)): −4.7E−15
Donor 2 TNFa Measurements Mean (TNFα; Donor 2, Conc. 4684 μM): −0.00221
Donor 2 TNFa Measurements Mean (TNFα; Donor 2, Conc. 11710 μM): −0.835
Donor 2 TNFa Measurements Mean (TNFα; Donor 2, Conc. 23420 μM): −1.251
Donor 3 TNFa Measurements Mean (TNFα; Donor 3, Conc. 234 μM (baseline)): −2.4E−15
Donor 3 TNFa Measurements Mean (TNFα; Donor 3, Conc. 4684 μM): 0.126
Donor 3 TNFa Measurements Mean (TNFα; Donor 3, Conc. 11710 μM): −2.599
Donor 3 TNFa Measurements Mean (TNFα; Donor 3, Conc. 23420 μM): 3.688
Donor 1 CCL18 Measurements Mean (CCL18; Donor 1, Conc. 234 μM): 1.109 fold change
Donor 1 CCL18 Measurements Mean (CCL18; Donor 1, Conc. 4684 μM): 1.264 fold change
Donor 1 CCL18 Measurements Mean (CCL18; Donor 1, Conc. 11710 μM): 1.442 fold change
Donor 1 CCL18 Measurements Mean (CCL18; Donor 1, Conc. 23420 μM): 0.9491 fold change
Donor 2 CCL18 Measurements Mean (CCL18; Donor 2, Conc. 234 μM): 1.255 fold change
Donor 2 CCL18 Measurements Mean (CCL18; Donor 2, Conc. 4684 μM): 1.545 fold change
Donor 2 CCL18 Measurements Mean (CCL18; Donor 2, Conc. 11710 μM): 1.998 fold change
Donor 2 CCL18 Measurements Mean (CCL18; Donor 2, Conc. 23420 μM): 2.269 fold change
CCL18 Measurements: Mean (fold change relative to vehicle control) (CCL18; Conc. 234 μM): 0.7896 fold change
CCL18 Measurements: Mean (fold change relative to vehicle control) (CCL18; Conc. 4684 μM): 0.9781 fold change
CCL18 Measurements: Mean (fold change relative to vehicle control) (CCL18; Conc. 11710 μM): 0.9976 fold change
CCL18 Measurements: Mean (fold change relative to vehicle control) (CCL18; Conc. 23420 μM): 1.082 fold change
IL-4 induced CCL18 secretion (fold change relative to vehicle control) (CCL18; Donor 2): significantly increased
